From patent US20060074243A1, “Hydroxamic acid and amide compounds and their use as protease inhibitors” (Pharmacia Corporation, priority 2002, published 2006)

Key:
Experiment in all cases: In vitro MMP inhibition analysis (fluorogenic peptide substrate cleavage), Ki
Format in all cases: biochemical
Settings in all cases: Table 2
[1] = biological target: T1, Human recombinant MMP-9 (Homo sapiens, UniProt P14780)
T1 construct: made in house; host or cells: MMP-9-transfected HT1080 cells (spent media)
How it was run: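 Recombinant MMP-9 purified from transfected HT1080 cell media, activated with APMA, trypsin or recombinant MMP-3, assayed in Tris buffer pH 7.5 with CaCl2 and 4 μM fluorogenic MCA/Dpa peptide, 1 h at room temperature (ex 330/em 420 nm). Ki from Morrison-equation regression of velocity; substrate at or below Km, uncorrected.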

[2] = biological target: T2, Human recombinant MMP-13 (Homo sapiens, UniProt P45452)
T2 construct: made in house; host or cells: baculovirus / insect cells
How it was run: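 Baculovirus-expressed full-length MMP-13 proenzyme was purified on heparin-agarose and zinc-chelate columns, then APMA-activated. It cleaved 4 μM MCA/Dpa fluorogenic peptide in 100 mM Tris-HCl, 100 mM NaCl, 10 mM CaCl2, 0.05% Brij-23, pH 7.5, for 1 h at room temperature (ex 330/em 420 nm). Ki came from Morrison-equation fits with substrate ≤Km, uncorrected.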

[3] = biological target: T3, Human recombinant MMP-14 (Homo sapiens, UniProt P50281)
T3 construct: The catalytic domain enzyme was expressed in E. coli inclusion bodies, solubilized in urea; made in house
How it was run: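 Refolded catalytic domain of MMP-14 expressed in E. coli, activated with APMA or trypsin, incubated 1 h at room temperature with 4 μM MCA-peptide substrate in Tris buffer pH 7.5 with CaCl2. Cleavage rate followed by fluorescence (ex 330/em 420 nm). Ki from Morrison-equation fit; substrate at or below Km, so no substrate correction.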

T1 sequence (P14780 107-707 limits assumed): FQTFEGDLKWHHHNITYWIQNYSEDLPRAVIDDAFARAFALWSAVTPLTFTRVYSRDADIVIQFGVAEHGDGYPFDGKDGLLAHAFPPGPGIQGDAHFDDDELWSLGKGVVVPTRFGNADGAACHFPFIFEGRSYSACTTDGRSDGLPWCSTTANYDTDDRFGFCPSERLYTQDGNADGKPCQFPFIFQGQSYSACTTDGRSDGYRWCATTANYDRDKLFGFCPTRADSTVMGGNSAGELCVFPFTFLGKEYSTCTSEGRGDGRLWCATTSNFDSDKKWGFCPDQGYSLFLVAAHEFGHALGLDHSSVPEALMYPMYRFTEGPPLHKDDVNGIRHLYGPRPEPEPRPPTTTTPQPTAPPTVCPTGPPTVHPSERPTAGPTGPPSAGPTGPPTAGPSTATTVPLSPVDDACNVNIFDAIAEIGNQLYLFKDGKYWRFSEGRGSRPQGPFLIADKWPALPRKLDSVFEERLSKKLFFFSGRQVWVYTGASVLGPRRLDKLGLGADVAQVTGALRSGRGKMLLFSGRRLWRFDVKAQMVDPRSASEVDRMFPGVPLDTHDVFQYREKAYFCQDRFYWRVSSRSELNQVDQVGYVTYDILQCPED

Row | Structure (SMILES) | Ki [1] | Ki [2] | Ki [3]
1 | O=C(NO)C1(S(=O)(=O)c2ccc(-c3cnc(OCCC4CCCC4)cn3)cc2)CCOCC1 [Example 180] | 1.03 nM | 0.15 nM | 1140 nM
2 | COC(=O)c1ccc2cc(-c3ccc(S(=O)(=O)C4(C(=O)NO)CCOCC4)cc3)ccc2c1 [Example 181] | 0.264 nM | 0.09 nM | 623 nM
3 | COc1ccc(Cc2cnc(-c3ccc(S(=O)(=O)C4(C(=O)NO)CCOCC4)cc3)cn2)cc1 [Example 182] | 246 nM | 7.07 nM | > 10000 nM
4 | CO[C@H]1CC[C@](C(=O)NO)(S(=O)(=O)c2ccc(-c3cnc(CCC(F)(F)C(F)(F)F)cn3)cc2)CC1 [Example 183] | 0.14 nM | 0.13 nM | 798 nM
5 | CCCCNC(=O)c1cnc(-c2ccc(S(=O)(=O)C3(C(=O)NO)CCOCC3)cc2)cn1 [Example 184] | 13.1 nM | 0.21 nM | 1290 nM
6 | CC(C)CCNC(=O)c1cnc(-c2ccc(S(=O)(=O)C3(C(=O)NO)CCOCC3)cc2)cn1 [Example 185] | 13.5 nM | 0.19 nM | 2050 nM
7 | CC(C)CNC(=O)c1cnc(-c2ccc(S(=O)(=O)C3(C(=O)NO)CCOCC3)cc2)cn1 [Example 186] | 21.7 nM | 0.55 nM | 4610 nM
8 | COCCO[C@H]1CC[C@](C(=O)NO)(S(=O)(=O)c2ccc(-c3cnc(CCC(F)(F)C(F)(F)F)cn3)cc2)CC1 [Example 187] | 0.16 nM | 0.1 nM | 625 nM
9 | O=C(NO)C1(S(=O)(=O)c2ccc(-c3ccc4c(c3)OCO4)cc2)CCOCC1 [Example 188] | 4.23 nM | 0.08 nM | 27.1 nM
10 | O=C(NCC1CCCCC1)c1cnc(-c2ccc(S(=O)(=O)C3(C(=O)NO)CCOCC3)cc2)cn1 [Example 190] | 32.3 nM | 0.28 nM | 4700 nM
11 | O=C(NCC1CC1)c1cnc(-c2ccc(S(=O)(=O)C3(C(=O)NO)CCOCC3)cc2)cn1 [Example 191] | 1.43 nM | 0.24 nM | 930 nM
12 | O=C(NCC(F)(F)C(F)(F)F)c1cnc(-c2ccc(S(=O)(=O)C3(C(=O)NO)CCOCC3)cc2)cn1 [Example 192] | 41.1 nM | 0.22 nM | 5920 nM
13 | O=C(NO)C1(S(=O)(=O)c2ccc(-c3nc4ccccc4o3)cc2)CCOCC1 [Example 193] | 11.5 nM | 1.69 nM | 96.7 nM
14 | O=C(NO)C1(S(=O)(=O)c2ccc(-c3cnc4ccccc4n3)cc2)CCOCC1 [Example 194] | 1260 nM | 319 nM | > 10000 nM
15 | O=C(NO)C1(S(=O)(=O)c2ccc(-c3nc4ccccc4s3)cc2)CCOCC1 [Example 195] | 32.2 nM | 7.2 nM | 1790 nM
16 | O=C1c2ccccc2C(=O)N1CCCOc1cccc(-c2ccc(S(=O)(=O)C3(C(=O)NO)CCOCC3)cc2)c1 [Example 196] | 430 nM | 13.5 nM | > 10000 nM
17 | O=C(NO)C1(S(=O)(=O)c2ccc(-c3ccccc3CO)cc2)CCOCC1 [Example 197] | > 10000 nM | 1080 nM | > 10000 nM
18 | O=C(NC1CCCC1)c1ccc(-c2ccc(S(=O)(=O)C3(C(=O)NO)CCOCC3)cc2)nc1 [Example 198] | 28.4 nM | 0.323 nM | 5120 nM
19 | C#CCN1CCC(C(=O)NO)(S(=O)(=O)c2ccc(-c3ccc(CCC(F)(F)C(F)(F)F)cn3)cc2)CC1 [Example 199] | 0.147 nM | 0.086 nM | 586 nM
20 | COCCN1CCC(C(=O)NO)(S(=O)(=O)c2ccc(-c3cnc(OCCC4CCCC4)cn3)cc2)CC1 [Example 200] | 0.648 nM | 0.144 nM | 942 nM
21 | O=C(NO)C1(S(=O)(=O)c2ccc(-c3ccc(CCC(F)(F)C(F)(F)F)cn3)cc2)CCOCC1 [Example 201] | 0.097 nM | 0.02 nM | 221 nM
22 | O=C(NO)C1(S(=O)(=O)c2ccc(-c3ccc(CCCC(F)(F)F)cn3)cc2)CC=CC1 [Example 202] | 0.578 nM | 0.076 nM | 1260 nM

Row | Structure (SMILES) | Ki [1] | Ki [2] | Ki [3]
23 | CCCCNC(=O)c1ccc(-c2ccc(S(=O)(=O)C3(C(=O)NO)CCOCC3)cc2)nc1 [Example 203] | 61.4 nM | 0.375 nM | 7920 nM
24 | CC(C)NC(=O)c1ccc(-c2ccc(S(=O)(=O)C3(C(=O)NO)CCOCC3)cc2)nc1 [Example 204] | 11.8 nM | 0.751 nM | 6370 nM
25 | CC(C)(C)NC(=O)c1ccc(-c2ccc(S(=O)(=O)C3(C(=O)NO)CCOCC3)cc2)nc1 [Example 205] | 21.8 nM | 1.19 nM | 7630 nM
26 | CCCCc1cnc(-c2ccc(S(=O)(=O)C3(C(=O)NO)CCN(CCOC)CC3)cc2)cn1 [Example 206] | 1.8 nM | 0.41 nM | > 10000 nM
27 | CC[C@@H](C)NC(=O)c1ccc(-c2ccc(S(=O)(=O)C3(C(=O)NO)CCOCC3)cc2)nc1 [Example 207] | 78 nM | 0.729 nM | > 10000 nM
28 | CC[C@H](C)NC(=O)c1ccc(-c2ccc(S(=O)(=O)C3(C(=O)NO)CCOCC3)cc2)nc1 [Example 208] | 39.4 nM | 0.715 nM | > 10000 nM
29 | COCCOC1CCC(C(=O)NO)(S(=O)(=O)c2ccc(-c3ccc(CCCC(F)(F)F)cn3)cc2)CC1 (stereo not drawn) [Example 209] | 0.138 nM | 0.029 nM | 272 nM
30 | COCCOC1CCC(C(=O)NO)(S(=O)(=O)c2ccc(-c3cnc(CCCC(F)(F)F)cn3)cc2)CC1 (stereo not drawn) [Example 210] | 0.75 nM | 0.151 nM | 3430 nM
31 | O=C(CCc1nccs1)c1ccc(-c2ccc(S(=O)(=O)C3(C(=O)NO)CCOCC3)cc2)cc1 [Example 211] | 9.78 nM | 0.056 nM | 773 nM
32 | O=C(Cc1ccc(-c2ccc(S(=O)(=O)C3(C(=O)NO)CCOCC3)cc2)nc1)N1CCCCC1 [Example 212] | 437 nM | 0.679 nM | > 10000 nM
33 | CCN1CCC(C(=O)NO)(S(=O)(=O)c2ccc(-c3cnc(CCC(F)(F)F)cn3)cc2)CC1 [Example 213] | 4.8 nM | 1.41 nM | > 10000 nM
34 | COCCN1CCC(C(=O)NO)(S(=O)(=O)c2ccc(-c3cnc(CCC(F)(F)F)cn3)cc2)CC1 [Example 214] | 2.05 nM | 0.661 nM | 6980 nM
35 | O=C(NO)C1(S(=O)(=O)c2ccc(-c3cnc(CCC(F)(F)F)cn3)cc2)CCN(C2CC2)CC1 [Example 215] | 1 nM | 0.356 nM | 5070 nM
36 | C#CCN(C)C(=O)c1ccc2cc(-c3ccc(S(=O)(=O)C4(C(=O)NO)CCOCC4)cc3)ccc2c1 [Example 216] | 13.3 nM | 0.572 nM | 2550 nM
37 | CCN1CCC(C(=O)NO)(S(=O)(=O)c2ccc(-c3cnc(CCCC(F)(F)F)cn3)cc2)CC1 [Example 217] | 5.22 nM | 1.2 nM | > 10000 nM
38 | O=C(NO)C1(S(=O)(=O)c2ccc(-c3cnc(CCCC(F)(F)F)cn3)cc2)CCN(C2CC2)CC1 [Example 218] | 0.938 nM | 0.267 nM | > 10000 nM
39 | Cc1nc(CCc2ccc(-c3ccc(S(=O)(=O)C4(C(=O)NO)CCOCC4)cc3)cc2)no1 [Example 219] | 9.25 nM | 0.111 nM | 1760 nM
40 | O=C(NCC1CC1)c1ccc2cc(-c3ccc(S(=O)(=O)C4(C(=O)NO)CCOCC4)cc3)ccc2c1 [Example 220] | 50.5 nM | 0.259 nM | > 2500 nM
41 | CN(C)C(=O)c1ccc2cc(-c3ccc(S(=O)(=O)C4(C(=O)NO)CCOCC4)cc3)ccc2c1 [Example 221] | 16.7 nM | 0.736 nM | 6850 nM
42 | O=C(c1ccc2cc(-c3ccc(S(=O)(=O)C4(C(=O)NO)CCOCC4)cc3)ccc2c1)N1CCOCC1 [Example 222] | 29.5 nM | 0.612 nM | > 10000 nM
43 | O=C(c1ccc2cc(-c3ccc(S(=O)(=O)C4(C(=O)NO)CCOCC4)cc3)ccc2c1)N1CCCCC1 [Example 223] | 34.3 nM | 0.97 nM | > 10000 nM
